Results published in PubChem BioAssay AID192 (DTP/NCI, 2004).
Where “and” joins values, the source holds several entries; their conditions need not be identical. Equal values may be shown once. Toxic doses and inconclusive results are not listed. Numbered stars: 1 amine (or outer) side, 2 acyl side, 3 side chain; on linkers, the order of the positions; unused ones are H or OH. Bridge positions count the residues as written; N and C are the ends. Square brackets hold non-standard residues; d marks the D form. Peptide text beside a SMILES is read from it. I, II: the chains in the order shown. Actinocin(9to1) = Cc1c2oc3c(C)ccc(C(=O)[*:1])c3nc-2c(C(=O)[*:2])c(N)c1=O; NMeV = CN[CH](C(=O)O)C(C)C; Aze = O=C(O)[CH]1CCN1; Sar = CNCC(=O)O

System: BDF1 mice, B16 melanoma ip, median survival T/C
Assay: NCI In Vivo Anticancer Drug Screen. Data for tumor model B16 Melanoma (intraperitoneal) in B6D2F1 (BDF1) mice
Conditions: endpoint: median survival time, higher = longer survival
How it was run: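 Tumor-bearing mice received test compound or vehicle. Survival or tumor size was then measured in both groups. The treated-group figure was divided by the control-group figure.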

[1] = dose: 50.0 mg/kg/injection, schedule: Q01DX009 (ip), vehicle: saline with Tween-80
[2] = dose: 100.0 mg/kg/injection, schedule: Q01DX009 (ip), vehicle: saline with Tween-80
[3] = dose: 200.0 mg/kg/injection, schedule: Q01DX009 (ip), vehicle: saline with Tween-80
[4] = dose: 25.0 mg/kg/injection, schedule: Q01DX009 (ip), vehicle: saline
[5] = dose: 100.0 mg/kg/injection, schedule: Q01DX009 (ip), vehicle: Klucel (hydroxypropylcellulose) (HPC)
[6] = dose: 400.0 mg/kg/injection, schedule: Q01DX009 (ip), vehicle: Klucel (hydroxypropylcellulose) (HPC)
[7] = dose: 100.0 mg/kg/injection, schedule: Q04DX003 (ip), vehicle: Klucel (hydroxypropylcellulose) (HPC)
[8] = dose: 200.0 mg/kg/injection, schedule: Q04DX003 (ip), vehicle: Klucel (hydroxypropylcellulose) (HPC)
[9] = dose: 400.0 mg/kg/injection, schedule: Q04DX003 (ip), vehicle: Klucel (hydroxypropylcellulose) (HPC)
[10] = dose: 200.0 mg/kg/injection, schedule: Q01DX009 (ip), vehicle: Klucel (hydroxypropylcellulose) (HPC)
[11] = dose: 12.5 mg/kg/injection, schedule: Q01DX009 (ip), vehicle: Klucel (hydroxypropylcellulose) (HPC)
[12] = dose: 25.0 mg/kg/injection, schedule: Q01DX009 (ip), vehicle: Klucel (hydroxypropylcellulose) (HPC)
[13] = dose: 50.0 mg/kg/injection, schedule: Q01DX009 (ip), vehicle: Klucel (hydroxypropylcellulose) (HPC)

COc1ccc2c(c1[N+](=O)[O-])CC[C@@H]1[C@@H]2CC[C@]2(C)C(=O)CC[C@@H]12
T/C [1]: 87 % of control
T/C [2]: 89 % of control

CC(C)CN(C)/N=N/c1nc[nH]c1C(N)=O
T/C (dose: 18.75 mg/kg/injection, schedule: Q01DX009 (ip), vehicle: carboxymethylcellulose (CMC)): 111 % of control
T/C (dose: 75.0 mg/kg/injection, schedule: Q01DX009 (ip), vehicle: carboxymethylcellulose (CMC)): 123 % of control

CCOC(=O)c1cc(-c2ccc(Cl)cc2)nc2c(Cl)cc(Cl)cc12
T/C [2]: 101 % of control
T/C [3]: 89 % of control
T/C (dose: 400.0 mg/kg/injection, schedule: Q01DX009 (ip), vehicle: saline with Tween-80): 88 % of control

CN1CN(C)CN(C)C1
T/C [4]: 118 % of control

O=C(OC1CCCCCCC1)C(F)(F)F
T/C [5]: 100 % of control
T/C [6]: 117 % of control

O=C1C(N2CC2)=C(N2CC2)C(=O)C(N2CC2)=C1N1CC1
T/C (dose: 10.0 micrograms/kg/injection, schedule: Q01DX009 (ip), vehicle: saline): 100 % of control and 118 % of control
T/C (dose: 20.0 micrograms/kg/injection, schedule: Q01DX009 (ip), vehicle: saline): 120 % of control

Cc1cc(=O)n2c3c(cc(C#N)cc13)OC2
T/C [7]: 92 % of control
T/C [8]: 95 % of control
T/C [9]: 92 % of control

NC(=O)Cn1cnc2c(=S)nc[nH]c21
T/C (dose: 12.5 mg/kg/injection, schedule: Q04DX003 (ip), vehicle: saline with Tween-80): 95 % of control
T/C (dose: 25.0 mg/kg/injection, schedule: Q04DX003 (ip), vehicle: saline with Tween-80): 100 % of control

C=C1C(=O)O[C@@H]2/C=C(/C)[C@@]3(O)C=C[C@](C)(C[C@@H](OC(=O)/C(=C\C)COC(C)=O)[C@@H]12)O3
T/C (dose: 0.03 mg/kg/injection, schedule: Q01DX009 (ip), vehicle: carboxymethylcellulose (CMC)): 99 % of control
T/C (dose: 0.12 mg/kg/injection, schedule: Q01DX009 (ip), vehicle: carboxymethylcellulose (CMC)): 102 % of control
T/C (dose: 0.25 mg/kg/injection, schedule: Q01DX009 (ip), vehicle: carboxymethylcellulose (CMC)): 97 % of control
T/C (dose: 6.0 mg/kg/injection, schedule: Q01DX009 (ip), vehicle: saline with Tween-80): 99 % of control
T/C (dose: 8.0 mg/kg/injection, schedule: Q01DX009 (ip), vehicle: saline with Tween-80): 105 % of control
T/C (dose: 12.0 mg/kg/injection, schedule: Q01DX009 (ip), vehicle: saline with Tween-80): 109 % of control
T/C (dose: 18.0 mg/kg/injection, schedule: Q01DX009 (ip), vehicle: saline with Tween-80): 92 % of control

NNC(=O)c1nc(N)n[nH]1
T/C (dose: 100.0 mg/kg/injection, schedule: Q04DX003 (ip), vehicle: saline): 103 % of control
T/C (dose: 200.0 mg/kg/injection, schedule: Q04DX003 (ip), vehicle: saline): 104 % of control
T/C (dose: 400.0 mg/kg/injection, schedule: Q04DX003 (ip), vehicle: saline): 103 % of control

O=[N+]([O-])c1ccc2nc3c(nc2c1)-c1cccc2cccc-3c12
T/C [1]: 103 % of control
T/C [2]: 100 % of control
T/C [3]: 98 % of control

CCOc1ccccc1NC(=O)Nc1cccc2ccccc12
T/C [5]: 103 % of control
T/C [10]: 100 % of control
T/C [6]: 103 % of control

CC/C(=C\c1cccc([N+](=O)[O-])c1)C(=O)O
T/C [7]: 94 % of control
T/C [8]: 94 % of control
T/C [9]: 91 % of control

Cc1c2oc3c(C)ccc(C(=O)NC4C(=O)NC(C(C)C)C(=O)N5CCC5C(=O)N(C)CC(=O)N(C)C(C(C)C)C(=O)OC4C)c3nc-2c(C(=O)NC2C(=O)NC(C(C)C)C(=O)N3CCC3C(=O)N(C)CC(=O)N(C)C(C(C)C)C(=O)OC2C)c(N)c1=O (stereo unspecified) (I: TV[Aze][Sar][NMeV] / II: TV[Aze][Sar][NMeV]; ester I:1-I:C, II:1-II:C; linker I:N-II:N via Actinocin(9to1); configuration not given here)
T/C (dose: 0.3 mg/kg/injection, schedule: Q04DX003 (ip), vehicle: saline + alcohol): 169 % of control
T/C (dose: 0.45 mg/kg/injection, schedule: Q04DX003 (ip), vehicle: saline + alcohol): 163 % of control
T/C (dose: 100.0 micrograms/kg/injection, schedule: Q01DX009 (ip), vehicle: saline + alcohol): 159 % of control
T/C (dose: 150.0 micrograms/kg/injection, schedule: Q01DX009 (ip), vehicle: saline + alcohol): 161 % of control

O=C1N(c2nncs2)CCN1[N+](=O)[O-]
T/C [11]: 91 % of control
T/C [12]: 102 % of control
T/C [13]: 100 % of control
T/C [10]: 87 % of control

O=C1/C(=C\c2ccc([N+](=O)[O-])cc2)CS(=O)(=O)C/C1=C/c1ccc([N+](=O)[O-])cc1
T/C [13]: 91 % of control
T/C [5]: 97 % of control
T/C [10]: 102 % of control

CC(C)=CCC(OC(=O)C=C(C)C)C1=CC(=O)c2c(O)ccc(O)c2C1=O (stereo unspecified)
T/C (dose: 0.25 mg/kg/injection, schedule: Q01DX009 (ip), vehicle: Klucel (hydroxypropylcellulose) (HPC)): 99 % of control
T/C (dose: 0.5 mg/kg/injection, schedule: Q01DX009 (ip), vehicle: Klucel (hydroxypropylcellulose) (HPC)): 92 % of control

O=[N+]([O-])c1ccc(NCc2ccccc2)nc1
T/C (dose: 25.0 mg/kg/injection, schedule: Q01DX009 (ip), vehicle: saline with Tween-80): 100 % of control
T/C [1]: 100 % of control
T/C [2]: 121 % of control
T/C [3]: 105 % of control

OCCCCc1nccc2c1[nH]c1ccccc12
T/C [11]: 97 % of control
T/C [12]: 95 % of control
T/C [13]: 95 % of control
T/C [5]: 96 % of control

CCOC(=O)NC(C)(C)CN(CCO)C(=O)OCC
T/C [7]: 102 % of control
T/C [9]: 100 % of control

CCC12C=CCN3CCC4(c5cc(C6c7[nH]c8ccccc8c7CCN7CCCCC67)c(OC)cc5N(C)C4C(O)(C(=O)OC)C1OC(C)=O)C32 (stereo unspecified)
T/C (dose: 0.06 mg/kg/injection, schedule: Q01DX009 (ip), vehicle: other): 98 % of control
T/C (dose: 0.13 mg/kg/injection, schedule: Q01DX009 (ip), vehicle: other): 96 % of control
T/C (dose: 0.25 mg/kg/injection, schedule: Q01DX009 (ip), vehicle: other): 96 % of control
T/C (dose: 0.5 mg/kg/injection, schedule: Q01DX009 (ip), vehicle: other): 108 % of control
T/C (dose: 1.0 mg/kg/injection, schedule: Q01DX009 (ip), vehicle: other): 108 % of control
T/C (dose: 2.0 mg/kg/injection, schedule: Q01DX009 (ip), vehicle: other): 108 % of control

N#CCCN(C(=O)COc1ccc(Cl)cc1Cl)C1CCCCC1
T/C [11]: 99 % of control
T/C [12]: 103 % of control
T/C [13]: 98 % of control

CC(C)CC(C)(c1ccc(O)cc1)c1ccc(O)cc1
T/C [2]: 98 % of control
T/C [3]: 98 % of control

OCCc1ccccc1
T/C (dose: 31.3 mg/kg/injection, schedule: Q01DX009 (ip), vehicle: saline with Tween-80): 93 % of control
T/C [1]: 100 % of control
T/C (dose: 62.5 mg/kg/injection, schedule: Q01DX009 (ip), vehicle: saline with Tween-80): 95 % of control
T/C [2]: 97 % of control
T/C (dose: 125.0 mg/kg/injection, schedule: Q01DX009 (ip), vehicle: saline with Tween-80): 100 % of control
T/C [3]: 105 % of control
T/C (dose: 250.0 mg/kg/injection, schedule: Q01DX009 (ip), vehicle: saline with Tween-80): 93 % of control

C=C1C(O)C2(O)OCC34C(CC5C(C)=CC(=O)C(O)C5(C)C23)OC(=O)C(OC(=O)C(C)(O)CC)C14 (stereo unspecified)
T/C (dose: 0.06 mg/kg/injection, schedule: Q01DX009 (ip), vehicle: saline + alcohol): 109 % of control
T/C (dose: 1.0 mg/kg/injection, schedule: Q01DX009 (ip), vehicle: saline + alcohol): 163 % of control

CN(C)CCOC(=O)COc1ccc(Cl)cc1
T/C [4]: 104 % of control
T/C (dose: 50.0 mg/kg/injection, schedule: Q01DX009 (ip), vehicle: saline): 104 % of control
T/C (dose: 100.0 mg/kg/injection, schedule: Q01DX009 (ip), vehicle: saline): 109 % of control
T/C (dose: 200.0 mg/kg/injection, schedule: Q01DX009 (ip), vehicle: saline): 102 % of control
T/C (dose: 400.0 mg/kg/injection, schedule: Q01DX009 (ip), vehicle: saline): 97 % of control

O=S(=O)(O)O.[W]
T/C (dose: 0.75 mg/kg/injection, schedule: Q01DX009 (ip), vehicle: saline): 87 % of control and 100 % of control
T/C (dose: 1.5 mg/kg/injection, schedule: Q01DX009 (ip), vehicle: saline): 91 % of control and 101 % of control
